Reference: publication PMC11251168, “Effect of ABCB1 most frequent polymorphisms on the accumulation of bictegravir in recombinant HEK293 cell lines” (Scientific Reports, 2024)
Counter-ions that a name gives are not always drawn.

Assays:
[1] = system: ABCB1 c.1236C > T, c.2677G > T and c.3435C > T variants; conditions: cited from earlier work
[2] = system: ABCB1 (HEKWT, HEK1199A, HEKCGT, HEKTTT, HEKcontrol); assay: Model functionality assay: Rhodamine123 intracellular fluorescence with or without zosuquidar; format: cell-based, human; conditions: Rh123 5 μM, 90 min
Protocol: 0.05 × 10^6 cells were seeded on poly-l-lysine coated 96-well plates and incubated overnight. The next day, Rh123 and zosuquidar dilutions were prepared from a stock solution. Cells were incubated for 90 min at 37 °C in the presence of Rh123 at 5 μM. The effect of ABCB1 inhibition was assessed by preincubation of the cells for 15 min with zosuquidar at a concentration of 0.2 μM. After incubation with Rh123, the supernatants were discarded. The cells were washed two times with ice-cold PBS. Sterile water was then added and detachment and lysis were performed through scratching of the well’s surface followed by sonication. Finally, fluorescence of Rh123 was analyzed by an iD3 Spectramax (Molecular Devices) fluorometer (c.1199G > A model validation) or a M3 Spectramax (Molecular Devices) fluorometer (haplotype model validation); excitation wavelength was set at 485 nm and emission at 530 nm. The solution was then used for protein quantification for results normalization.
Statistical analyses were carried out using GraphPad Prism version 9.5.1 for Mac OS X (GraphPad Software). For the functional assays, protein normalized intracellular fluorescences were compared after log-transformation using the natural logarithm (Ln), when required. Comparison was performed using a two-way ANOVA (α = 0.05) followed by a post-hoc analysis testing the effect of the inhibitor, with Bonferroni correction for multiple testing. For the intracellular bictegravir accumulation experiments, triplicates were performed during each experiment, and each experiment was performed thrice. For each experiment, protein normalized bictegravir intracellular concentrations were reported as fold-change of the mean of the protein normalized bictegravir intracellular concentration observed at the lowest bictegravir exposition concentration for HEKcontrol during the same experiment. Fold-change results from the three biological replicates were pooled and are shown on Figs. 3 and 4. Statistical analysis were performed on Ln transformed data that were pooled using the same principle as described here above. […]

[3] = system: PBMCs; assay: Preliminary clinical pharmacokinetic assessments of intracellular accumulation in PBMCs; format: in vivo
[4] = system: ABCB1 c.1199G > A variant; conditions: cited from earlier work
[5] = system: human peripheral blood mononuclear cells; design: method as in PMID 36806669; conditions: cited from earlier work
[6] = design: method as in PMID 36701274; conditions: cited from earlier work
[7] = system: ABCB1 1199G-1236T-2677T-3435T; assay: Intracellular bictegravir accumulation in HEK293 cells overexpressing ABCB1 TTT haplotype (HEKTTT); format: in vitro ADME, human; conditions: 2 h incubation, 0.25-5 mg/l; Fig. 4
Excerpt: (§1) The generation and characterization of recombinant cell lines have been described in previous work conducted by our lab[26],[42]. Briefly, human embryonic kidney (HEK293) cells were purchased from American Type Culture Collection and transfected with plasmids carrying either wild-type ABCB1 1199G-1236C-2677G-3435C (thereafter named HEKWT) or several ABCB1 variant combinations obtained using site-directed mutagenesis, 1199A-1236C-2677G-3435C (thereafter named HEK1199A), 1199G-1236C-2677G-3435T (thereafter named HEKCGT) and 1199G-1236T-2677T-3435T (thereafter named HEKTTT); or an empty vector (thereafter named HEKcontrol). HEKCGT was selected, in addition to HEKWT (carrying the CGC haplotype) and HEKTTT, to test the potential impact of c.3435C > T variant. HEK293 cells feature low endogenous levels of expression of ABCB1, ensuring that ABCB1 expression originates almost exclusively from the transfection process. This model has previously been extensively characterized using flow cytometry, Western blot, and fluorescence microscopy, and validated using reference substrates and inhibitors of ABCB1[26],[42]. As the same cells were used, only flow cytometry and functional tests using reference substrates and inhibitors were used to re-characterize them.
(§2) 0.7 × 10^6 cells were seeded on poly-l-lysine-coated 12-well plates and incubated overnight. […] Cell suspensions were centrifugated for 10 min at 10,500×g, 4 °C and 100 μl of the supernatant was transferred to a vial for bictegravir liquid chromatography-tandem mass spectrometry (LC–MS/MS) quantification. […] This mixed solution was used for protein quantification for results normalization.
(§3) Bictegravir intracellular concentrations were determined using an adapted version of a previously published LC–MS/MS method on a Xevo TQS-micro tandem quadrupole mass spectrometer (Waters)[46]. […] The following ion transitions were monitored: 450.1 > 289.1 for bictegravir and 453.2 > 289.2 for bictegravir-15N, d2.
(§4) Total proteins were quantified in pellets using the BCA kit (Thermo Fisher Scientific) according to the manufacturer’s instructions. […]

[8] = target: T1, ABCB1 1199G-1236T-2677T-3435T (Homo sapiens, UniProt P08183); assay: as above; format: in vitro ADME; conditions: 2 h incubation, 0.25-5 mg/l; Fig. 4
T1 construct: expressed in transfected cells; host or cells: HEK293 (ATCC), pcDNA3.1 plasmid, G418 selection
Excerpt: as §1, §2, §3, §4

[9] = design: method as in PMID 32868324, PMID 32199329; conditions: cited from earlier work
[10] = target: T2, ABCB1 wild-type 1199G-1236C-2677G-3435C (Homo sapiens, UniProt P08183, S893A); assay: Intracellular bictegravir accumulation in HEK293 cells overexpressing wild-type ABCB1 (HEKWT); format: in vitro ADME; conditions: 2 h incubation, 0.25-5 mg/l
T2 construct: expressed in transfected cells; host or cells: HEK293 (ATCC), pcDNA3.1 plasmid, G418 selection
Excerpt: as §1, with “HEKCGT was selected, in addition to HEKWT (carrying the CGC haplotype) and HEKTTT, to test the potential impact of c.3435C > T variant. HEK293 cells feature low endogenous levels of expression of ABCB1, ensuring that ABCB1 expression originates almost exclusively from the transfection process.” left out, “As the same cells were used, only flow cytometry and functional tests using reference substrates and inhibitors were used to re-characterize them.” left out
as §2
(§5) Bictegravir intracellular concentrations were determined using an adapted version of a previously published LC–MS/MS method on a Xevo TQS-micro tandem quadrupole mass spectrometer (Waters)[46]. […]

[11] = system: ABCB1; design: method as in PMID 36701274; conditions: ABCB1-overexpressing MDCK II transfected cells compared with non-transfected cells; cited from earlier work
[12] = design: method as in PMID 36701274; conditions: cited from earlier work; remark: listed apart in the source
[13] = target: T3, ABCB1 1199G-1236C-2677G-3435T (Homo sapiens, UniProt P08183, S893A); assay: Intracellular bictegravir accumulation in HEK293 cells overexpressing ABCB1 CGT haplotype (HEKCGT); format: in vitro ADME; conditions: 2 h incubation, 0.25-5 mg/l; Fig. 4
T3 construct: expressed in transfected cells; host or cells: HEK293 (ATCC), pcDNA3.1 plasmid, G418 selection
Excerpt: as §1, with “HEKCGT was selected, in addition to HEKWT (carrying the CGC haplotype) and HEKTTT, to test the potential impact of c.3435C > T variant. HEK293 cells feature low endogenous levels of expression of ABCB1, ensuring that ABCB1 expression originates almost exclusively from the transfection process.” left out, “As the same cells were used, only flow cytometry and functional tests using reference substrates and inhibitors were used to re-characterize them.” left out
as §2, §5

[14] = design: method as in PMID 36701274; conditions: thought to be mainly due to passive diffusion; cited from earlier work
[15] = target: T4, ABCB1 (wild-type, HEK1199G cells; HEKcontrol cells) (Homo sapiens, UniProt P08183, S893A); assay: Intracellular bictegravir accumulation with or without the ABCB1 inhibitor zosuquidar (Supplementary Fig. 2); format: in vitro ADME; conditions: bictegravir 2500 ng/mL, 120 min, zosuquidar 0.2 μM preincubation 15 min
T4 construct: expressed in transfected cells; host or cells: HEK293 (ATCC), pcDNA3.1 plasmid, G418 selection
Protocol: 0.7x10^6 cells were seeded on poly-l-lysine-coated 12-well plates and incubated overnight. The next day, bictegravir and zosuquidar dilutions were prepared from a stock solution. Cells were incubated for 120 minutes at 37 °C (5% CO2) in the presence of bictegravir at 2500 ng/mL. The effect of ABCB1 inhibition was assessed by preincubation of the cells for 15 minutes with zosuquidar at a concentration of 0.2 μM. Subsequently, plates were then centrifuged for 3 min at 4 °C, and maintained on ice throughout the experiment to block drug efflux. Cells were washed twice with 1 mL […]
Drug extraction was then performed as described in the Manuscript, in the Methods section describing Intracellular bictegravir accumulation experiments. Drug quantification and protein quantification were performed as described in the dedicated Methods sections.
Reported statistical analysis: ANOVA-2 with post-hoc Bonferroni correction test, performed on log- […]
(1 picture or pasted object on this page, not shown here)

[16] = design: method as in PMID 32868324, PMID 32199329; conditions: cited from earlier work; remark: listed apart in the source
[17] = target: T5, ABCB1 1199A-1236C-2677G-3435C (Homo sapiens, UniProt P08183, S400N/S893A); assay: Intracellular bictegravir accumulation in HEK293 cells overexpressing ABCB1 1199A variant (HEK1199A); format: in vitro ADME; conditions: 2 h incubation, 0.25-5 mg/l, Fig. 3
T5 construct: expressed in transfected cells; host or cells: HEK293 (ATCC), pcDNA3.1 plasmid, G418 selection
Excerpt: as §1, with “HEKCGT was selected, in addition to HEKWT (carrying the CGC haplotype) and HEKTTT, to test the potential impact of c.3435C > T variant. HEK293 cells feature low endogenous levels of expression of ABCB1, ensuring that ABCB1 expression originates almost exclusively from the transfection process.” left out, “As the same cells were used, only flow cytometry and functional tests using reference substrates and inhibitors were used to re-characterize them.” left out
as §2, §5

[18] = zosuquidar 0.2 μM, 15 min preincubation

T5 sequence (P08183 whole entry S400N/S893A): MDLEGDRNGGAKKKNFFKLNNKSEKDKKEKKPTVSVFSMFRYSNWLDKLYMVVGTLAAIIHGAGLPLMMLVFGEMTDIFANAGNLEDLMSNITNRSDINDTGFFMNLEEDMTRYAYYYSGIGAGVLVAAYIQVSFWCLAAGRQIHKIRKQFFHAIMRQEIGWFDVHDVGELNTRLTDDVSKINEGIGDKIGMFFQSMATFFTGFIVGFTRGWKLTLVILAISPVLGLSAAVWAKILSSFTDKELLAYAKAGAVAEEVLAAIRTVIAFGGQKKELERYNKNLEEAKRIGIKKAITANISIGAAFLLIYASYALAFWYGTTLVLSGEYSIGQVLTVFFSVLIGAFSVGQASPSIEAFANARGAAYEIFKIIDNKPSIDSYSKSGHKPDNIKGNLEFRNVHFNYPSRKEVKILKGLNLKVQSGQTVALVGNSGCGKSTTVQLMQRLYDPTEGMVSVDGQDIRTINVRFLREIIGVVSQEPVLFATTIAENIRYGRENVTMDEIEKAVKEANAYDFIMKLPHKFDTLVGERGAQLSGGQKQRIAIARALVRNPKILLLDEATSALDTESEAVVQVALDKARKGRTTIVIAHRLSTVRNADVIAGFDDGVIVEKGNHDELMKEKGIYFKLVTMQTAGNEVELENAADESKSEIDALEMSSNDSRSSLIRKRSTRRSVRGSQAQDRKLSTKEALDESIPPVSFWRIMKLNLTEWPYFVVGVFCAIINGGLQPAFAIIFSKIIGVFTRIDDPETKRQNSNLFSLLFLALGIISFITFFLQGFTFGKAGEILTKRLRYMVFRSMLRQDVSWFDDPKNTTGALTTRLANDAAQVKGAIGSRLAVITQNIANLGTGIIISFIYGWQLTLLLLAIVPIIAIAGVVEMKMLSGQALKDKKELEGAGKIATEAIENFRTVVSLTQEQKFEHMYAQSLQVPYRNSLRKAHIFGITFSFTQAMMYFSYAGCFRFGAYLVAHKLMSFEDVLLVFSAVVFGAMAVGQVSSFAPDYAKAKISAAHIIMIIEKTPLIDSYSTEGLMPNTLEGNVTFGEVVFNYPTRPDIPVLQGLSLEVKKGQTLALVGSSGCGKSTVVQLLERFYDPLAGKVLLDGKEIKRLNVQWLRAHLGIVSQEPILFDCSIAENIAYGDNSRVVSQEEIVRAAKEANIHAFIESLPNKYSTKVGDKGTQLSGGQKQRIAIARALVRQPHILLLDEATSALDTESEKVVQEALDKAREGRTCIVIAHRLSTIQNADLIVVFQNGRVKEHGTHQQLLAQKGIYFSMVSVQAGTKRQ
T2 sequence (P08183 whole entry S893A): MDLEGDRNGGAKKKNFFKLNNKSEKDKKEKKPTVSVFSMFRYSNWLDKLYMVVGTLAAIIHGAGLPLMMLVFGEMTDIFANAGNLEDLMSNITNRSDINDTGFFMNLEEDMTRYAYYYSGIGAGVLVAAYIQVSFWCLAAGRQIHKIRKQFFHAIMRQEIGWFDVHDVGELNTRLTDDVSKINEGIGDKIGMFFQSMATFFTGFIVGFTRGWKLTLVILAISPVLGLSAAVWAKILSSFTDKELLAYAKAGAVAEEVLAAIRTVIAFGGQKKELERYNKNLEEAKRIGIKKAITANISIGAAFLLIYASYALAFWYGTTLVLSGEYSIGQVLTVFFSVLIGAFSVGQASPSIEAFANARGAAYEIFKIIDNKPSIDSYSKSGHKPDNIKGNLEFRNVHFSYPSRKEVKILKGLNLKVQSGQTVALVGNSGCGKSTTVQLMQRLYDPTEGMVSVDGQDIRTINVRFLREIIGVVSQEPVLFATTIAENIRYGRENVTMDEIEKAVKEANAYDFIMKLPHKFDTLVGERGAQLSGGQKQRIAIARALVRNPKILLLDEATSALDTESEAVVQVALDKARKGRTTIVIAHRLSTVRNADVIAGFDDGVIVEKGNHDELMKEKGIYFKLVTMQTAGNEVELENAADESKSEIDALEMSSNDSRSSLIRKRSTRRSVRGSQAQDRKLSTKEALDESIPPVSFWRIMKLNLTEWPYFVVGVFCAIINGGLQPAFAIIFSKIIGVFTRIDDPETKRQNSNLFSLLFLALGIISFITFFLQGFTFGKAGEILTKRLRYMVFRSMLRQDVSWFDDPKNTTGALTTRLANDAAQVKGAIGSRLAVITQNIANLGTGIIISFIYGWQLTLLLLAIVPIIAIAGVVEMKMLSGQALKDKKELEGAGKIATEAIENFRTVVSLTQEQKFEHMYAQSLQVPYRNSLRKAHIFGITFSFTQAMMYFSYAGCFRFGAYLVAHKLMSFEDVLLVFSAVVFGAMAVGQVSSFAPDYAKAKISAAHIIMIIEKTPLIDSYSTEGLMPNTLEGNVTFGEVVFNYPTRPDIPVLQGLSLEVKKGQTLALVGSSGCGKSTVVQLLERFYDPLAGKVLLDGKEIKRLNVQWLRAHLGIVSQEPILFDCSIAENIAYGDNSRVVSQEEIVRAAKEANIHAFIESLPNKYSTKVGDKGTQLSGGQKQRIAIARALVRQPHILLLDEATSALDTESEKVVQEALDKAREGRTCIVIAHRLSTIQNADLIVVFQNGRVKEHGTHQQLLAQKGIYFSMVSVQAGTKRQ
T3 sequence (P08183 whole entry S893A): as above
T1 sequence (P08183 whole entry): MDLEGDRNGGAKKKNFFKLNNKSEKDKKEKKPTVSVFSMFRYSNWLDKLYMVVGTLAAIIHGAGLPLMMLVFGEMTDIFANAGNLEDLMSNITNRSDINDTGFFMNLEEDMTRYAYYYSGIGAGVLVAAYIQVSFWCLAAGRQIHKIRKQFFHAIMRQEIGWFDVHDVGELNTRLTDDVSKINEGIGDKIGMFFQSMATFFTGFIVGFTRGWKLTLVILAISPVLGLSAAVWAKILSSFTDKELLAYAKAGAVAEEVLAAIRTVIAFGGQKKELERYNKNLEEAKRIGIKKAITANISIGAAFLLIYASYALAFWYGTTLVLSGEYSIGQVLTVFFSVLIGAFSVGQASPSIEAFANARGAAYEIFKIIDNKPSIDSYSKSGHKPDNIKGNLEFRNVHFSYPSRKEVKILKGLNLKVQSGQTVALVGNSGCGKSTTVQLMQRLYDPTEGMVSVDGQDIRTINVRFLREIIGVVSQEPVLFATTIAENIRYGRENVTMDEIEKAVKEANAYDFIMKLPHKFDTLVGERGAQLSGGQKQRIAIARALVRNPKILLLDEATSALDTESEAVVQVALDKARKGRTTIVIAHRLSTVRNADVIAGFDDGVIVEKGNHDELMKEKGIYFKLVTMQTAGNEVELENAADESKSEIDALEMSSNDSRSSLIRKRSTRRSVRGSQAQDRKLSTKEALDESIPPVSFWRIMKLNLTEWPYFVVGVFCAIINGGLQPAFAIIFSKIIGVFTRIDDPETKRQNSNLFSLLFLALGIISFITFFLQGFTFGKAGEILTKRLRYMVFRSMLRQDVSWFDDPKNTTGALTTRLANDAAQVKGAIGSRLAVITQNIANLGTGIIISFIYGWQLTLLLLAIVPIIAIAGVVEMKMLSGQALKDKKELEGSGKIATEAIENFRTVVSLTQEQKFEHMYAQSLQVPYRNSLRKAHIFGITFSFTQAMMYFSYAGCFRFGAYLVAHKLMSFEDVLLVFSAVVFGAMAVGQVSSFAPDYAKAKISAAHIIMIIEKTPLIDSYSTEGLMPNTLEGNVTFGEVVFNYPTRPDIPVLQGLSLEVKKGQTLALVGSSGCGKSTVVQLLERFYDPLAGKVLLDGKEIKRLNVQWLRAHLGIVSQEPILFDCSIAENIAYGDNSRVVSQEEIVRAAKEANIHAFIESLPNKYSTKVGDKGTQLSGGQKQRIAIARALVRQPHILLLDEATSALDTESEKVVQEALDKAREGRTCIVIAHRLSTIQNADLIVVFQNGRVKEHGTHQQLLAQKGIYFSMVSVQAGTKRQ

Structure (SMILES): Cc1ccc(NC(=O)c2ccc(CN3CCN(C)CC3)cc2)cc1Nc1nccc(-c2cccnc2)n1 [imatinib]
- impact of c.1236C > T, c.2677G > T and c.3435C > T variants on anti-proliferative activity [1]: more pronounced effect

Structure (SMILES): O[C@@H](COc1cccc2ncccc12)CN1CCN([C@@H]2c3ccccc3[C@@H]3[C@H](c4ccccc42)C3(F)F)CC1 [zosuquidar, zosuquidar hydrochloride]
- Rh123 intracellular fluorescence after pre-incubation with zosuquidar, cell lines overexpressing ABCB1 [2, 18]: increased to a level close to the level measured for HEKcontrol
- effect of the inhibitor on Rh123 fluorescence in the HEKcontrol batch used for haplotype functional characterization [2, 18]: small but significant effect

Structure (SMILES): C[C@@H]1CCO[C@H]2Cn3cc(C(=O)NCc4ccc(F)cc4F)c(=O)c(O)c3C(=O)N12 [dolutegravir]
- intracellular accumulation in PBMCs compared to bictegravir [3]: higher

Structure (SMILES): Cc1cn(-c2cc(NC(=O)c3ccc(C)c(Nc4nccc(-c5cccnc5)n4)c3)cc(C(F)(F)F)c2)cn1 [nilotinib]
- effect of c.1199G > A variant on transport [4]: affect the transport

Structure (SMILES): Cc1nc(Nc2ncc(C(=O)Nc3c(C)cccc3Cl)s2)cc(N2CCN(CCO)CC2)n1 [dasatinib]
- effect of c.1199G > A variant on transport [4]: affect the transport

Structure (SMILES): C=CC[C@@H]1/C=C(\C)C[C@H](C)C[C@H](OC)[C@H]2O[C@@](O)(C(=O)C(=O)N3CCCC[C@H]3C(=O)O[C@H](/C(C)=C/[C@@H]3CC[C@@H](O)[C@H](OC)C3)[C@H](C)[C@@H](O)CC1=O)[C@H](C)C[C@@H]2OC [tacrolimus]
- impact of c.1199G > A variant on intracellular accumulation ([4]; same cellular model): significant impact

Structure (SMILES): O=C(NCc1c(F)cc(F)cc1F)c1cn2c(c(O)c1=O)C(=O)N1[C@H]3CC[C@H](C3)O[C@@H]1C2 [bictegravir]
- accumulation into human peripheral blood mononuclear cells [5]: limited
- biopharmaceutical classification system class [6]: class II
- solubility (biopharmaceutical classification system) [6]: low solubility
- difference of bictegravir intracellular accumulation, HEKCGT vs HEKTTT [7]: did not show any significant difference
- difference of bictegravir intracellular accumulation, HEKWT vs HEKTTT [7]: did not show any significant difference
- bictegravir intracellular accumulation, HEKTTT versus HEKcontrol [8]: significantly lower
- ratios of cerebrospinal fluid over plasma bictegravir concentrations [9]: low
- bictegravir intracellular accumulation, HEKWT versus HEKcontrol ([10]; c.1199G > A experiments, protein-normalized, fold-change, Fig. 3): significantly lower
- bictegravir intracellular accumulation, HEKWT versus HEKcontrol ([10]; haplotype experiments, Fig. 4): significantly lower
- transport by ABCB1 [11]: active transport
- permeability (biopharmaceutical classification system) [12]: high permeability
- transepithelial permeability [12]: High
- bictegravir intracellular accumulation, HEKCGT versus HEKcontrol [13]: significantly lower
- difference of bictegravir intracellular accumulation, HEKWT vs HEKCGT [13]: did not show any significant difference
- oral bioavailability [14]: high
- change of bictegravir intracellular accumulation in the presence of zosuquidar, HEK1199G cells [15]: significant increase
- plasma protein binding [16]: high
- difference of bictegravir intracellular accumulation between HEKWT and HEK1199A [17]: did not show any significant difference
- bictegravir intracellular accumulation, HEK1199A versus HEKcontrol ([17]; protein-normalized, fold-change): significantly lower

Structure (SMILES): COC(=O)c1ccccc1-c1c2ccc(=N)cc-2oc2cc(N)ccc12 [Rh123, Rhodamine123]
- Rh123 intracellular fluorescence in cell lines overexpressing ABCB1 compared to HEKcontrol ([2]; HEKWT, HEK1199A, HEKCGT and HEKTTT, without zosuquidar): significantly lower
